From ChEMBL document CHEMBL5344409, “Discovery of pan-IAP degraders via a CRBN recruiting mechanism” (2023)
Calls of active or inactive are those of the source. The calls are words filed in the database; no cut-off is given here.

How the values were obtained:
[1] = molecular target: T1, Protein cereblon/E3 ubiquitin-protein ligase XIAP (Homo sapiens) (UniProt P98170+Q96SW2); test: PROTAC activity at CRBN/XIAP in human MCF7 cells assessed as induction of XIAP degradation at 0.1 uM measured after 18 hrs by western blot analysis; assay type: cell-based
T1 sequence (P98170 whole entry, looked up): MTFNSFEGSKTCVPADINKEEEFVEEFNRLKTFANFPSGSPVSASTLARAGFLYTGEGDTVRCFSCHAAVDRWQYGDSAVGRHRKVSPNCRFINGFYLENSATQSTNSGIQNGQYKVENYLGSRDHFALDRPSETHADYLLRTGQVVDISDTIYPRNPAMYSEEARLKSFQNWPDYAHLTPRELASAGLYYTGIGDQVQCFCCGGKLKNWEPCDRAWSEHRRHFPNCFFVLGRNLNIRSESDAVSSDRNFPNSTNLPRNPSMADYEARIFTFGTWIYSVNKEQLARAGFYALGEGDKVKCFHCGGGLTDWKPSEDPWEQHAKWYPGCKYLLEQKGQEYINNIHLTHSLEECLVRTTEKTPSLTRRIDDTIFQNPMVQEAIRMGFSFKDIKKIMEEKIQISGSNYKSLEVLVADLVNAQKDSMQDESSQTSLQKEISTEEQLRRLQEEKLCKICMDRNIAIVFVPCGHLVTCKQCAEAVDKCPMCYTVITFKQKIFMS
T1 sequence (Q96SW2 whole entry, looked up): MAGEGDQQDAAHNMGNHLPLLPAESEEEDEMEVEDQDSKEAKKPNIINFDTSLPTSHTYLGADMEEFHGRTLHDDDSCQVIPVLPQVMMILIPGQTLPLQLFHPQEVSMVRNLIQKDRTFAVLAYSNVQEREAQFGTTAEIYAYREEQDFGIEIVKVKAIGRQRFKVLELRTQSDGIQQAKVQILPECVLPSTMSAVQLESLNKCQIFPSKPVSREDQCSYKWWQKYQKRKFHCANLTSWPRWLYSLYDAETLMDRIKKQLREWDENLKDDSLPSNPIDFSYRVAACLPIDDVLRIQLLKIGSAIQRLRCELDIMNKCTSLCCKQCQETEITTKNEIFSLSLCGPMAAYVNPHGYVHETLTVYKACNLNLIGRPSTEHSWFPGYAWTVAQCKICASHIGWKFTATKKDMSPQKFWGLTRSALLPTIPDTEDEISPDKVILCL

[2] = molecular target: Protein cereblon (Homo sapiens) (UniProt Q96SW2); test: Induction of CRBN degradation in human MCF7 cells by western blot analysis; assay type: cell-based
Sequence of Protein cereblon (Homo sapiens) (Q96SW2 whole entry): as the sequence (Q96SW2 whole entry, looked up) above

[3] = molecular target: T1, Protein cereblon/E3 ubiquitin-protein ligase XIAP (Homo sapiens); test: PROTAC activity at CRBN/XIAP in human MCF7 cells assessed as induction of XIAP degradation at 1 uM measured after 6 hrs in presence of proteasome inhibitor, MG132 by western blot analysis; assay type: cell-based
[4] = molecular target: Baculoviral IAP repeat-containing protein 3 (Homo sapiens) (UniProt Q13489); test: Induction of […] degradation in human MCF7 cells transfected with CRBN siRNA at 0.01 to 1 uM measured after 18 hrs by western blot analysis; assay type: cell-based; conditions: dose 0.01-1 µM
Sequence of Baculoviral IAP repeat-containing protein 3 (Homo sapiens) (Q13489 whole entry): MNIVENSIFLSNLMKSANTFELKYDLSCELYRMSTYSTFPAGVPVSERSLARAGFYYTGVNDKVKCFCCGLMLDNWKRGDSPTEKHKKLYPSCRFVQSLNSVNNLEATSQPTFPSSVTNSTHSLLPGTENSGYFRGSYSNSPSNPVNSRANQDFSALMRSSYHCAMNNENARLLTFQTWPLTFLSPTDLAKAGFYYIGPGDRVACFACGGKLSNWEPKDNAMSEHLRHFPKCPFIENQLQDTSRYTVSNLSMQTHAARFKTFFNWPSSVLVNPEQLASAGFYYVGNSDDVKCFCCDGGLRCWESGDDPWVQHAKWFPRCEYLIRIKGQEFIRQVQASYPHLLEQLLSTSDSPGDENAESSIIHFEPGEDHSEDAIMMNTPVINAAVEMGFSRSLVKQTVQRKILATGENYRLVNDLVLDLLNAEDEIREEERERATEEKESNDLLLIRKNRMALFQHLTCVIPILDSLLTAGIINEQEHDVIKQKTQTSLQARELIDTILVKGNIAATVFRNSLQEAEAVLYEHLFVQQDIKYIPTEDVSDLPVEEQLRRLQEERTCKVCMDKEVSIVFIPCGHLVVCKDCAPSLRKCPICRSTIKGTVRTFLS

[5] = molecular target: E3 ubiquitin-protein ligase XIAP (Homo sapiens) (UniProt P98170); test: Induction of XIAP degradation in human MCF7 cells transfected with CRBN siRNA at 0.01 to 1 uM measured after 18 hrs by western blot analysis; assay type: cell-based; conditions: dose 0.01-1 µM
Sequence of E3 ubiquitin-protein ligase XIAP (Homo sapiens) (P98170 whole entry): as the sequence (P98170 whole entry, looked up) above

[6] = molecular target: Protein cereblon/Baculoviral IAP repeat-containing protein 2 (Homo sapiens) (UniProt Q13490+Q96SW2); test: Binding affinity to CRBN/cIAP1 in human HEK293T cells assessed as ternary complex formation at 1 uM measured after 6 hrs by immunoprecipitation analysis; assay type: cell-based
Sequence of Protein cereblon/Baculoviral IAP repeat-containing protein 2 (Homo sapiens) (Q13490 whole entry, looked up): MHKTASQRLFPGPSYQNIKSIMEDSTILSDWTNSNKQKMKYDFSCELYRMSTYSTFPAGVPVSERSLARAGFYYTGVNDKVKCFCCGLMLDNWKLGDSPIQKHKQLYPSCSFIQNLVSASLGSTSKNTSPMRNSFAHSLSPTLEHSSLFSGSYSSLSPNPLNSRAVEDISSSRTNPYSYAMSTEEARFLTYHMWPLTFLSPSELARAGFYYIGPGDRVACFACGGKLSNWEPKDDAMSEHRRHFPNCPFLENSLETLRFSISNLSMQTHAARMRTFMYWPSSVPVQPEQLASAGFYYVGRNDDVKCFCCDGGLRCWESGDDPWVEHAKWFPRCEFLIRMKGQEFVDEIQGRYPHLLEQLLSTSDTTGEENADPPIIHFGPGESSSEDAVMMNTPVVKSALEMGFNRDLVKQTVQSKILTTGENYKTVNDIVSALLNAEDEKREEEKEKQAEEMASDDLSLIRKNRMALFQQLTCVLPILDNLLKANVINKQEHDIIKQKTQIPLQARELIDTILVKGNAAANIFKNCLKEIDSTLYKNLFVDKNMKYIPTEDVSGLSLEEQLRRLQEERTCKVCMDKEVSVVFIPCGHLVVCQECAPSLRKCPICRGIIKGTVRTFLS
Sequence of Protein cereblon/Baculoviral IAP repeat-containing protein 2 (Homo sapiens) (Q96SW2 whole entry, looked up): as the sequence (Q96SW2 whole entry, looked up) above

[7] = molecular target: Protein cereblon/Baculoviral IAP repeat-containing protein 3 (Homo sapiens) (UniProt Q13489+Q96SW2); test: Binding affinity to CRBN/cIAP2 in human HEK293T cells assessed as ternary complex formation at 1 uM measured after 6 hrs by immunoprecipitation analysis; assay type: cell-based
Sequence of Protein cereblon/Baculoviral IAP repeat-containing protein 3 (Homo sapiens) (Q13489 whole entry, looked up): as the sequence (Q13489 whole entry) above
Sequence of Protein cereblon/Baculoviral IAP repeat-containing protein 3 (Homo sapiens) (Q96SW2 whole entry, looked up): as the sequence (Q96SW2 whole entry, looked up) above

[8] = molecular target: Baculoviral IAP repeat-containing protein 2 (Homo sapiens) (UniProt Q13490); test: Induction of cIAP1 degradation in human MCF7 cells assessed as protein abundance at 1 uM measured after 4 hrs by TMT-labeling based LC-MS/MS analysis; assay type: cell-based
Sequence of Baculoviral IAP repeat-containing protein 2 (Homo sapiens) (Q13490 whole entry): as the sequence (Q13490 whole entry, looked up) above

MCF7 [9] = test: Induction of apoptosis in human MCF7 cells assessed as increase in caspase 7 cleavage at 0.1 uM measured after 18 hrs by western blot analysis; assay type: functional, cell-based
MCF7 [10] = test: Induction of apoptosis in human MCF7 cells assessed as increase in caspase 3/7 activity at 0.01 to 1 uM measured after 18 hrs by Caspase-Glo reagent based luminescence analysis; assay type: functional, cell-based; conditions: dose 0.01-1 µM
MCF7 [11] = test: Induction of apoptosis in human MCF7 cells assessed as increase in total apoptotic cells at 1 uM measured after 48 hrs by AnnexinV-FITC/PI staining based flow cytometry; assay type: functional
[12] = molecular target: Protein cereblon-IAP (Homo sapiens) (UniProt P98170+Q13489+Q13490+Q96SW2); test: PROTAC activity at CRBN/IAP in human MCF7 cells assessed as inhibition of TNFalpha-induced NFkappaB activation by measuring decrease in p65 phosphorylation at 0.1 uM pretreated for 2 hrs followed by stimulation with TNF-alpha for 3 mins by western blot analysis; assay type: cell-based; conditions: time 123.0 min
Sequence of Protein cereblon-IAP (Homo sapiens) (P98170 whole entry, looked up): as the sequence (P98170 whole entry, looked up) above
Sequence of Protein cereblon-IAP (Homo sapiens) (Q13489 whole entry, looked up): as the sequence (Q13489 whole entry) above
Sequence of Protein cereblon-IAP (Homo sapiens) (Q13490 whole entry, looked up): as the sequence (Q13490 whole entry, looked up) above
Sequence of Protein cereblon-IAP (Homo sapiens) (Q96SW2 whole entry, looked up): as the sequence (Q96SW2 whole entry, looked up) above

MDA-MB-157 = test: Inhibition of TNFalpha-induced cell migration in human MDA-MB-157 cells at 0.1 uM measured after 24 hrs in presence of TNFalpha by transwell assay; assay type: functional, cell-based
MCF7 [13] = test: Inhibition of TNFalpha-induced vimentin protein expression in human MCF7 cells by western blot analysis; assay type: functional, cell-based

For CN[C@@H](C)C(=O)N[C@H](C(=O)N1Cc2cc(OCCCCCCCCNC(=O)C3CN(c4ccc5c(c4)C(=O)N(C4CCC(=O)NC4=O)C5=O)C3)ccc2C[C@H]1C(=O)N[C@@H]1CCCc2ccccc21)C(C)(C)C (some centres undefined), which Activity [1] is on record?
The Activity was 99%.

And the Activity [2]?
Its Activity is “inactive”.

What about the Activity [3] of the same compound?
The Activity was “inactive”.

What about the Activity [4] of the same compound?
Its Activity is “inactive”.

What about the Activity [5] of the same compound?
Its Activity is “inactive”.

And the Activity [6]?
The Activity was “inactive”.

And the Activity [7]?
Its Activity is “Active”.

What about the fold change (FC) [8] of the same compound?
The fold change (FC) was greater than 2.

And the Activity (MCF7 [9])?
The Activity was “Active”.

And the Activity (MCF7 [10])?
Its Activity is “Active”.

What about the Activity (MCF7 [11]) of the same compound?
Its Activity is 46%.

And the Activity [12]?
The Activity was “Active”.

What about the inhibition (MDA-MB-157) of the same compound?
Its inhibition is “Active”.

And the inhibition (MCF7 [13])?
The inhibition was “Active”.
